Data set [1] addresses T1, integrins haα4 and β1 (VLA-4) expressed on CHO cells (Homo sapiens, UniProt P05556+P13612).
T1 construct: expressed in transfected cells; host or cells: CHO cells
Briefly: In vitro Evaluation Test (1): binding of Eu3+-hVCAM-1 D1D7-IgG to CHO cells expressing integrins α4 and β1. Particulars: inhibition of Eu3+-hVCAM-1 D1D7-IgG binding to CHO cells expressing α4β1; Ki calculated from IC50. Put shortly:
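CHO cells transduced with human α4 and β1 were grown for 2 days. They were incubated 1 h at room temperature with Eu3+-hVCAM-1 D1D7-IgG (diluted to 2 nM before addition) and compound, with or without 6% HSA, in HEPES pH 7.5 containing Ca2+, Mg2+ and 4 mM Mn2+. Time-resolved fluorescence gave IC50; Ki used a Scatchard-derived Kd (0.06–20 nM).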

Data set [2] is described as follows: Evaluation of oral bioavailability by mouse bioassay. Type of data set: in vivo. Particulars: 10 mg/kg oral, female Balb/C mice, serum 15 minutes after administration, read-out: Blood level. On the procedure: A test compound was suspended or dissolved in a proper administration medium to give a concentration of 1 mg/ml. To 7 to 9 week old female Balb/C mice, 10 mg/kg of the resulting suspension or solution was orally administered. Fifteen minutes after the administration, blood was collected from the postcava under anesthesia with ether and the serum was separated from it. The concentration of each test compound was determined by estimating the serum level from a calibration curve obtained with VCAM-1/VLA-4 inhibitory activity as an index or measuring the concentration by using LC/MS/MS.

pKi: −log10 of the molar value.

T1 sequence (P13612 34-1032): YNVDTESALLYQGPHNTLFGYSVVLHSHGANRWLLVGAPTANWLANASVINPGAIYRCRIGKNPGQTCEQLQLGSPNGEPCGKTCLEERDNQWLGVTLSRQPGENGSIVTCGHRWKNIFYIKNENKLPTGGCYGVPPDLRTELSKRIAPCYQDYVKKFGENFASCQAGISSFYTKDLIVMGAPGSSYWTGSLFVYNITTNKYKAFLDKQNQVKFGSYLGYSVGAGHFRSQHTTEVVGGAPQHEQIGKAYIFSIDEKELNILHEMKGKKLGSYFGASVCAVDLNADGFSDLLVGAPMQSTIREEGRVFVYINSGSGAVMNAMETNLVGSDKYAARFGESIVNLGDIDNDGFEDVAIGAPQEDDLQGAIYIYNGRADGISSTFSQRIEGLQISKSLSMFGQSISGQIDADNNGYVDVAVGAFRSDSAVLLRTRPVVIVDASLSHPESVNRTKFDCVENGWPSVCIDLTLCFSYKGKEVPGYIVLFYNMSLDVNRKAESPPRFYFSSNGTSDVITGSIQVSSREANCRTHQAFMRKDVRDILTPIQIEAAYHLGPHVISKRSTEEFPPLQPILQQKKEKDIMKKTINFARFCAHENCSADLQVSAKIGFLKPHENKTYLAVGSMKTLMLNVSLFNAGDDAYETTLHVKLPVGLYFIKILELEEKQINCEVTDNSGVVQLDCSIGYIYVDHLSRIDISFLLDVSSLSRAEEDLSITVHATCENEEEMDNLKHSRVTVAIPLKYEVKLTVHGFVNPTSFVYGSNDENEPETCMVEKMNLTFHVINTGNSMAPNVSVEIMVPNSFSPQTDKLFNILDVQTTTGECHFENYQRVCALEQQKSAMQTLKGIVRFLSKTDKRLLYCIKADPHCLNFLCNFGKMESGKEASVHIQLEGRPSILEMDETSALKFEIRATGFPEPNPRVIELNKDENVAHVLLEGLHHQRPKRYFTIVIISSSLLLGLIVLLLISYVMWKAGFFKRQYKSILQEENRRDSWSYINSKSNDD
T1 sequence (P05556 21-798): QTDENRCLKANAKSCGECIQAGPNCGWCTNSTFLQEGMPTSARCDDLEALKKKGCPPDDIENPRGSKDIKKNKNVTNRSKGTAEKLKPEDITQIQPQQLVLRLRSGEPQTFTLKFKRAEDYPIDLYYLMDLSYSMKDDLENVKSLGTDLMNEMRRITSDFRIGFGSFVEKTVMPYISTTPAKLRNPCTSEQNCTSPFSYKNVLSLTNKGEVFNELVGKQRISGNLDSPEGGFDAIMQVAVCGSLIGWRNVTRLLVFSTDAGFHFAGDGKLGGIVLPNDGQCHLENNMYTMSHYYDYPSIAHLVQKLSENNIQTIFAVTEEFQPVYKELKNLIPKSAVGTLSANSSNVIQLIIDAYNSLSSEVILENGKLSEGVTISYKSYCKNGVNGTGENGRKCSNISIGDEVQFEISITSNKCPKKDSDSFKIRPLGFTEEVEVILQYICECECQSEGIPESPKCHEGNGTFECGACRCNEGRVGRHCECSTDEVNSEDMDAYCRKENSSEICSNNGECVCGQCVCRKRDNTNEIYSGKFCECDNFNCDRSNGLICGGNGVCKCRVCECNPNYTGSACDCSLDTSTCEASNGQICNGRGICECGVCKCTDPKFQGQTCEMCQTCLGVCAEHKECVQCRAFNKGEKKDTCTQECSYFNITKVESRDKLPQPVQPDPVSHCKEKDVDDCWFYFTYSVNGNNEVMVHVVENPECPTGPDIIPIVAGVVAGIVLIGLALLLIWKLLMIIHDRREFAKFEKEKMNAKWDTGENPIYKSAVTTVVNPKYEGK

Regarding `Cn1cc(C(=O)Nc2cc(F)c(CC(=O)N3CCC[C@H]3CO[C@H]3CC[C@H](C(=O)O)CC3)cc2Cl)c2ccccc21` [Example 130, trans-4-(1-((5-Chloro-2-fluoro-4-(1-methyl-3-indolylcarbonylamino)phenyl)acetyl)-(2S)-pyrrolidinylmethoxy)-1-cyclohexanecarboxylic acid], the pKi (commonly the negative decadic logarithm of the Ki, by convention in mol/L) in data set [1] was 8.06. In addition, the concentration at 15 min in data set [2] is 3590 ng/mL.
Taken in the same sequence, the figures for `O=C(Cc1cc(Cl)c(Nc2nc3ccccc3s2)cc1F)N1C[C@@H](F)C[C@H]1CO[C@H]1CC[C@H](C(=O)O)CC1` [Example 61, trans-4-(1-(4-(2-Benzothiazolyl)amino-5-chloro-2-fluorophenylacetyl)-(4S)-fluoro-(2S)-pyrrolidinylmethoxy)cyclohexanecarboxylic acid] were 8.64 and 3320 ng/mL.
On to `Cn1cc(C(=O)Nc2cc(Cl)c(CC(=O)N3C[C@@H](F)C[C@H]3CO[C@H]3CC[C@H](C(=O)O)CC3)cc2Cl)c2ccccc21` [Example 72, trans-4-(1-(2,5-Dichloro-4-((1-methyl-1H-3-indolylcarbonyl)amino)phenylacetyl)-(4S)-fluoro-(2S)-pyrrolidinylmethoxy)cyclohexanecarboxylic acid], for which the pKi in data set [1] is 8.36. In addition, the concentration at 15 min in data set [2] came out at 1880 ng/mL.
With `O=C(Nc1ccc(CC(=O)N2C[C@@H](F)C[C@H]2CO[C@H]2CC[C@H](C(=O)O)CC2)cc1Br)c1nccc2ccccc12` [Example 79, trans-4-(1-((3-Bromo-4-((1-isoquinolinylcarbonyl)amino)phenyl)acetyl)-(4S)-fluoro-(2S)-pyrrolidinylmethoxy)cyclohexanecarboxylic acid], in data set [1], the pKi is 8.35. Further, the concentration at 15 min in data set [2] amounted to 9370 ng/mL.
In the case of `O=C(O)C1CCC(OC[C@@H]2C[C@H](F)CN2C(=O)Cc2ccc3nc(Nc4ccccc4Br)oc3c2)CC1` (single isomer, unassigned) [25 (Isomer A)], in data set [1], the pKi is 7.74. Besides, the concentration at 15 min in data set [2] turned out to be 1090 ng/mL.
Take `CO[C@H]1C[C@@H](CO[C@H]2CC[C@H](C(=O)O)CC2)N(C(=O)Cc2cc(Cl)c(NC(=O)c3nn(C)c4ccccc34)cc2F)C1` [Example 121, trans-4-(1-((5-Chloro-2-fluoro-4-(1-methyl-3-indazolylcarbonylamino)phenyl)acetyl)-(4S)-methoxy-(2S)-pyrrolidinylmethoxy)cyclohexanecarboxylic acid]: the pKi in data set [1] is 8.41. For the same compound, the concentration at 15 min in data set [2] was 4410 ng/mL.
On the same counts, the results for `O=C(Cc1cc(Cl)c(Nc2nc3cc(F)ccc3s2)cc1F)N1C[C@@H](F)C[C@H]1CO[C@H]1CC[C@H](C(=O)O)CC1` [Example 63, trans-4-(1-(5-Chloro-4-(5-fluoro-2-benzothiazolyl)amino-2-fluorophenylacetyl)-(4S)-fluoro-(2S)-pyrrolidinylmethoxy)cyclohexanecarboxylic acid] are 8.51 and 8550 ng/mL.
As to `O=C(O)C1CCC(OC[C@@H]2C[C@H](F)CN2C(=O)Cc2ccc3nc(Nc4ccccc4Cl)oc3c2)CC1` (single isomer, unassigned) [24 (Isomer A)], the pKi in data set [1] is 7.85. For the same compound, the concentration at 15 min in data set [2] was 2180 ng/mL.
On the same counts, the results for `Cn1cc(C(=O)Nc2ccc(CC(=O)N3C[C@@H](F)C[C@H]3CO[C@H]3CC[C@H](C(=O)O)CC3)cc2F)c2ccccc21` [Example 70, trans-4-(1-(3-Fluoro-4-(1-methyl-3-indolyl)carbonylaminophenylacetyl)-(4S)-fluoro-(2S)-pyrrolidinylmethoxy)cyclohexanecarboxylic acid] are 8.14 and 2800 ng/mL.
Consider `O=C(Cc1ccc(Nc2nc3cc(F)ccc3s2)c(Cl)c1)N1C[C@@H](F)C[C@H]1CO[C@H]1CC[C@H](C(=O)O)CC1` [Example 62, trans-4-(1-(3-Chloro-4-(5-fluoro-2-benzothiazolyl)aminophenylacetyl)-(4S)-fluoro-(2)-pyrrolidinylmethoxy)cyclohexanecarboxylic acid], for which the pKi in data set [1] was 8.47. Further, the concentration at 15 min in data set [2] stood at 3200 ng/mL.
With `O=C(Nc1ccc(CC(=O)N2C[C@@H](F)C[C@H]2CO[C@H]2CC[C@H](C(=O)O)CC2)cc1Cl)c1nsc2ccccc12` [Example 83, trans-4-(1-(3-Chloro-4-((3-benzo(d)isothiazolylcarbonyl)amino)phenylacetyl)-(4S)-fluoro-(2S)-pyrrolidinylmethoxy)cyclohexanecarboxylic acid], the pKi in data set [1] is 8.72. Also, the concentration at 15 min in data set [2] stood at 1540 ng/mL.
As for `COC[C@H]1C[C@@H](CO[C@H]2CC[C@H](C(=O)O)CC2)N(C(=O)Cc2cc(Cl)c(NC(=O)c3nn(C)c4ccccc34)cc2F)C1` [Example 139, trans-4-(1-(5-Chloro-2-fluoro-4-((1-methyl-1H-indazole-3-indazolylcarbonyl)amino)phenylacetyl)-(4S)-methoxymethyl-(2S)-pyrrolidinylmethoxy)cyclohexanecarboxylic acid], the pKi in data set [1] was 8.04. The concentration at 15 min in data set [2] was determined as 2430 ng/mL.
Turning to `Cn1nc(C(=O)Nc2cc(F)c(CC(=O)N3C[C@@H](F)C[C@H]3CO[C@H]3CC[C@H](C(=O)O)CC3)cc2Cl)c2ccccc21` [Example 87, trans-4-(1-((5-Chloro-2-fluoro-4-((1-methyl-3-indazolylcarbonyl)amino)phenyl)acetyl)-(4S)-fluoro-(2S)-pyrrolidinylmethoxy)cyclohexanecarboxylic acid], the pKi in data set [1] was 8.04. Also, the concentration at 15 min in data set [2] was determined as 15100 ng/mL.
Take `O=C(Cc1cc(Cl)c(Nc2nc3ccccc3o2)cc1F)N1C[C@@H](F)C[C@H]1CO[C@H]1CC[C@H](C(=O)O)CC1` [Example 55, trans-4-(1-(4-(2-Benzoxazolyl)amino-5-chloro-2-fluorophenylacetyl)-(4S)-fluoro-(2S)-pyrrolidinylmethoxy)cyclohexanecarboxylic acid]: the pKi in data set [1] was 8.07. In data set [2], the concentration at 15 min amounted to 2030 ng/mL.
On to `O=C(Cc1ccc(Nc2nc3ccccc3o2)c(Cl)c1)N1C[C@@H](F)C[C@H]1CO[C@H]1CC[C@H](C(=O)O)CC1` [Example 49, trans-4-(1-(4-(2-benzoxazolyl)amino-3-chlorophenylacetyl)-(4S)-fluoro-(2S)-pyrrolidinylmethoxy)cyclohexanecarboxylic acid], for which the pKi in data set [1] was 8.36. Besides, the concentration at 15 min in data set [2] is 508 ng/mL.
In the case of `COC[C@H]1C[C@@H](CO[C@H]2CC[C@H](C(=O)O)CC2)N(C(=O)Cc2cc(Cl)c(NC(=O)c3cn(C)c4ccccc34)cc2F)C1` [Example 138, trans-4-(1-(5-Chloro-2-fluoro-4-((1-methyl-1H-3-indolylcarbonyl)amino)phenylacetyl)-(4S)-methoxymethyl-(2S)-pyrrolidinylmethoxy)cyclohexanecarboxylic acid], the pKi in data set [1] was 7.82. Besides, in data set [2], the concentration at 15 min was determined as 1260 ng/mL.
`Cn1cc(-c2nc3ccc(CC(=O)N4C[C@@H](F)C[C@H]4CO[C@H]4CC[C@H](C(=O)O)CC4)cc3o2)c2cc(F)ccc21` [Example 100, trans-4-(1-((2-(5-Fluoro-1-methyl-3-indolyl)-6-benzoxazolyl)acetyl)-(4S)-fluoro-(2S)-pyrrolidinylmethoxy)cyclohexanecarboxylic acid]: the pKi in data set [1] was 8.26. Also, the concentration at 15 min in data set [2] came to 533 ng/mL.

(Values after patent US7157487B2, “Vla-4 inhibitors” (Daiichi Pharmaceutical Co., Ltd., priority 2000, dated 2007).)
